Measured values published in US7381537B2, “Use of inhibitors of glutaminyl cyclases for treatment and prevention of disease” (Probiodrug AG, priority 2003, dated 2008).
Entries after “also recorded” stand apart in the source; their conditions may differ. Ends that are not written are not given here.

Key:
[1] = target: T1, QC (Homo sapiens, UniProt Q16769); assay: Reactivation of inactivated human QC with metal ions; type: biochemical; design: The cDNA of the mature QC starting with codon 38 was fused in frame with the plasmid encoded 6×histidine tag; 6xHis; made in house; host or cells: Pichia pastoris X33 (pPICZαB); also E. coli M15 (pQE-31); conditions: 0.5 mM metal ion in presence of 0.5 mM EDTA
Method: Subsequently, the enzyme was subjected to dialysis against 50 mM Bis-Tris, pH 6.8, containing 1.0 mM EDTA. Reactivation of the enzymes was achieved by incubation of the inactivated enzyme sample with metal ions at a concentration of 0.5 mM, in presence of 0.5 mM EDTA in order to avoid an unspecific reactivation by traces of metal ions present in buffer solutions. Controls are given by enzyme samples that were not inactivated, but also dialyzed against EDTA solution as the inactivated enzyme (+EDTA) and enzyme samples that were dialyzed against buffer solutions without added EDTA (−EDTA).

[2] = tested on: Glutaminyl cyclase present in the homogenate of porcine pituitary; assay: Formation of [pGlu^3]Aβ3-11a by QC in porcine pituitary homogenate, MALDI-TOF; type: biochemical; conditions: 2 mM 1,10-phenanthroline
Method: (§1) Matrix-assisted laser desorption/ionization mass spectrometry was carried out using the Hewlett-Packard G2025 LD-TOF System with a linear time of flight analyzer. […] Samples (5 μl) were mixed with equal volumes of the matrix solution. For matrix solution we used DHAP/DAHC, prepared by solving 30 mg 2′,6′-dihydroxyacetophenone (Aldrich) and 44 mg diammonium hydrogen citrate (Fluka) in 1 ml acetonitrile/0.1% TFA in water (1/1, v/v). A small volume (=1 μl) of the matrix-analyte-mixture was transferred to a probe tip and immediately evaporated in a vacuum chamber (Hewlett-Packard G2024A sample prep accessory) to ensure rapid and homogeneous sample crystallization.
In case of Aβ3-21a, the assays contained 1% DMSO. At different times, samples were removed from the assay tube, peptides extracted using ZipTips (Millipore) according to the manufacturer's recommendations, mixed with matrix solution (1:1 v/v) and subsequently the mass spectra recorded.

[3] = tested on: DP IV and QC; assay: Consecutive catalysis of DP IV and QC, crude porcine pituitary homogenate with added DPIV, MALDI-TOF; type: biochemical
Method: as §1

[4] = tested on: mammalian QC; conditions: Busby et al. 1987; cited from earlier work
[5] = target: T1, QC; assay: Inhibition and inactivation of human QC by chelators; type: biochemical; design: The cDNA of the mature QC starting with codon 38 was fused in frame with the plasmid encoded 6×histidine tag; 6xHis; made in house; host or cells: Pichia pastoris X33 (pPICZαB); also E. coli M15 (pQE-31)
[6] = Solubility of substrates in aqueous solution

T1 sequence (Q16769 29-361): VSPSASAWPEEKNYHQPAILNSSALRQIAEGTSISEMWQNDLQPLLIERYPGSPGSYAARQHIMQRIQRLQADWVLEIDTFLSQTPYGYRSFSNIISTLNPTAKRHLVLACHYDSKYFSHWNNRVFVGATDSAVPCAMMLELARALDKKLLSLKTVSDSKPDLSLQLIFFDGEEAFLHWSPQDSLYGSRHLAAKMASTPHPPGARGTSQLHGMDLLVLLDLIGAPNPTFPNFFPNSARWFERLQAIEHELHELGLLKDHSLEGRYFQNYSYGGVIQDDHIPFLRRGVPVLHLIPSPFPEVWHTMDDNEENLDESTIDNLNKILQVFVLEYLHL

## O=S(=O)([O-])[O-].[Zn+2] [ZnSO4]
[1]
  restoration of QC activity after inactivation: Near-total restoration

## c1cnc2c(c1)ccc1cccnc12 [1,10-phenanthroline]
[2]
  inhibition of formation of [pGlu^3]Aβ3-11a from [Gln^3]Aβ3-11a: inhibited; also recorded: inhibition
[3]
  [pGlu^3]Aβ3-11a formation from [Gln^3]Aβ1-11a in presence of catalytically active DP IV and QC: not formed; also recorded: inhibition
[4]
  inhibition of a mammalian QC: Inhibition
[5]; competitive and time-dependent for the chelators
  inhibition of human QC catalyzed substrate cyclization: inhibited; also recorded: reduced enzymatic activity
[5]; dialysis against 5 mM
  inactivation of human QC after extensive dialysis: almost completely inactivated

## QFRHDSGYE-NH2 [[Gln^3]Aβ3-11a]
[6]
  solubility in aqueous solution: better
